# Measurements taken from patent US20210330611A1, “THERAPY FOR NEUROLOGICAL DISEASES/DISORDERS” (priority 2020, published 2021).
# Where a name gives a salt, the structure may show the parent alone. Read-outs that look alike come from different tables or passages of the source.
# Assays:
# [1] = test system: fibrin-induced microglia activation; test: Image-based assay of fibrin-induced microglia activation (HTS and dose response); type: cell-based, rat; conditions: for inhibition at 10 µM: read-out: Fibrin % inhibition
# [2] = test system: LPS-induced microglia activation; test: Image-based assay of LPS-induced microglia activation (HTS and dose response); type: cell-based, rat; conditions: for inhibition at 10 µM: read-out: LPS % inhibition
# [3] = test system: fibrin- and LPS-induced microglia activation; test: cells; type: cell-based, rat
# primary rat microglia [4] = test: Cell toxicity (dead cells, size <150 μm2) in LPS assay
# primary rat microglia [5] = test: Cell toxicity (dead cells, size <150 μm2) in coated fibrin (cFib) assay;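 further: share of dead cells sized under 150 µm2 at 10 µM in fibrin-stimulated microglia HTS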
# [6] = primary microglia HTS, fibrin stimulation, increased cell size (>800 μm^2) as marker of activation
# [7] = primary microglia HTS, LPS stimulation, increased cell size (>800 μm^2) as marker of activation
# [8] = quadrant by fibrin and LPS inhibition in HTS of 1907 compounds
# [9] = primary microglia HTS, LPS stimulation, decreased size (<150 μm^2) as marker of toxicity
# [10] = primary microglia HTS, fibrin stimulation, decreased size (<150 μm^2) as marker of toxicity
# [11] = Rattus norvegicus, Microglia, primary HTS, 10 μM, fibrin-stimulated primary microglia
# [12] = Rattus norvegicus, Microglia, primary HTS, 10 μM, LPS-stimulated primary microglia
# [13] = primary HTS, 10 μM, LPS assay, dead cells size <150 μm2
# [14] = primary HTS, 10 μM, fibrin assay, dead cells size <150 μm2
# [15] = Rattus norvegicus, Microglia, primary microglia HTS, fibrin stimulation, increased cell size (>800 μm^2) as marker of activation
# [16] = Rattus norvegicus, Microglia, 48 h, primary microglia HTS, LPS stimulation, increased cell size (>800 μm^2) as marker of activation
# [17] = Rattus norvegicus, Microglia, primary microglia HTS, 10 μM, fibrin-stimulated, cell size >800 μm^2 as marker of activation
# [18] = Rattus norvegicus, Microglia, primary microglia HTS, 10 μM, LPS-stimulated, cell size >800 μm^2 as marker of activation
# [19] = HTS of 1907 compounds, quadrant by fibrin and LPS inhibition
# [20] = primary microglia HTS, 10 μM, LPS assay, cell size <150 μm^2 as marker of toxicity
# [21] = primary microglia HTS, 10 μM, fibrin assay, cell size <150 μm^2 as marker of toxicity
# [22] = primary microglia HTS, LPS stimulation, toxicity = cell size <150 μm2
# [23] = primary microglia HTS, fibrin stimulation, toxicity = cell size <150 μm2
# [24] = Rattus norvegicus, Microglia, primary microglia HTS, fibrin stimulation, activation = cell size >800 μm2
# [25] = Rattus norvegicus, Microglia, 48 h, primary microglia HTS, LPS stimulation, activation = cell size >800 μm2
molecule,measurement,setting,value
Merbromin,Fibrin % inhibition,[1]; [6],−6%
same,LPS % inhibition,[2]; [7],36%
same,Quadrant (FIG. 5b),[3]; [8],Q4
same,LPS % cell toxicity,primary rat microglia [4]; [9],0%
same,Fibrin % cell toxicity,primary rat microglia [5]; [10],0%
C[C@H](CS)C(=O)N1CCC[C@H]1C(=O)O [Captopril],inhibition at 10 µM,[1]; [11],-11%
same,inhibition at 10 µM,[2]; [12],12%
same,Quadrant (FIG. 5b),"[3]; primary HTS, 10 μM",Q4
same,LPS % cell toxicity,primary rat microglia [4]; [13],1%
same,Fibrin % cell toxicity,primary rat microglia [5]; [14],1%
CCOC(=O)CC(=O)N1CCSC1COc1ccccc1OC (centres unmarked) [Moguisteine],inhibition at 10 µM,[1]; [15],-2%
same,inhibition at 10 µM,[2]; [16],15%
same,Quadrant (FIG. 5b),[3]; [8],Q4
same,LPS % cell toxicity,primary rat microglia [4]; [9],0%
same,Fibrin % cell toxicity,primary rat microglia [5]; [10],1%
CC[N+](C)(CC)CCOC(=O)C(O)(c1ccccc1)C1CCCCC1 (centres unmarked) [Oxyphenonium],inhibition at 10 µM,[1]; [15],-14%
same,inhibition at 10 µM,[2]; [16],30%
same,Quadrant (FIG. 5b),[3]; [8],Q4
same,LPS % cell toxicity,primary rat microglia [4]; [9],1%
same,Fibrin % cell toxicity,primary rat microglia [5]; [10],1%
CCCCCC(C)N (centres unmarked) [Tuaminoheptane Sulfate],inhibition at 10 µM,[1]; [17],-7%
same,inhibition at 10 µM,[2]; [18],19%
same,Quadrant (FIG. 5b),[3]; [19],Q4
same,LPS % cell toxicity,primary rat microglia [4]; [20],0%
same,Fibrin % cell toxicity,primary rat microglia [5]; [21],1%
OC[C@@H](O)[C@@H](O[C@@H]1O[C@H](CO)[C@H](O)[C@H](O)[C@H]1O)[C@H](O)[C@@H](O)CO [Lacitol],Fibrin % inhibition,"[1]; primary microglia HTS, fibrin stimulation, activation = cell size >800 μm2",−24%
same,LPS % inhibition,"[2]; primary microglia HTS, LPS stimulation, activation = cell size >800 μm2",18%
same,Quadrant (FIG. 5b),[3]; [8],Q4
same,LPS % cell toxicity,primary rat microglia [4]; [22],1%
same,Fibrin % cell toxicity,primary rat microglia [5]; [23],1%
CC(=O)Oc1cccc(C)c1 [Meta-cresyl Acetate],inhibition at 10 µM,[1]; [15],-7%
same,inhibition at 10 µM,[2]; [16],-3%
same,Quadrant (FIG. 5b),[3]; [8],Q4
same,LPS % cell toxicity,primary rat microglia [4]; [9],0%
same,Fibrin % cell toxicity,primary rat microglia [5]; [10],1%
CN(C)C(=O)Oc1cccc([N+](C)(C)C)c1 [Neostigmine],inhibition at 10 µM,[1]; [15],-15%
same,inhibition at 10 µM,[2]; [16],15%
same,Quadrant (FIG. 5b),[3]; [8],Q4
same,LPS % cell toxicity,primary rat microglia [4]; [9],0%
same,Fibrin % cell toxicity,primary rat microglia [5]; [10],0%
CC(=O)NCc1c(I)c(NC(C)=O)c(I)c(C(=O)O)c1I [Iodamide],inhibition at 10 µM,[1]; [15],41%
same,inhibition at 10 µM,[2]; [16],67%
same,Quadrant (FIG. 5b),[3]; [8],Q1
same,LPS % cell toxicity,primary rat microglia [4]; [9],1%
same,Fibrin % cell toxicity,primary rat microglia [5]; [10],0%
CC(=O)[C@H]1CC[C@H]2[C@@H]3CC[C@H]4C[C@](C)(O)CC[C@]4(C)[C@H]3CC[C@]12C [Ganaxolone],inhibition at 10 µM,[1]; [24],-38%
same,inhibition at 10 µM,[2]; [25],12%
same,Quadrant (FIG. 5b),[3]; [8],Q4
same,LPS % cell toxicity,primary rat microglia [4]; [22],0%
same,Fibrin % cell toxicity,primary rat microglia [5]; [23],1%
CC(=O)Oc1cc(C(C)C)c(OCCN(C)C)cc1C [Moxisylyte],inhibition at 10 µM,[1]; [15],-22%
same,inhibition at 10 µM,[2]; [16],3%
same,Quadrant (FIG. 5b),[3]; [8],Q4
same,LPS % cell toxicity,primary rat microglia [4]; [9],0%
same,Fibrin % cell toxicity,primary rat microglia [5]; [10],0%
Cc1ccc2c(Br)cc(Br)c(OC(=O)c3ccccc3)c2n1 [Broxaldine],inhibition at 10 µM,[1]; [11],19%
same,inhibition at 10 µM,[2]; [12],6%
same,Quadrant (FIG. 5b),"[3]; primary HTS, 10 μM",Q4
same,LPS % cell toxicity,primary rat microglia [4]; [13],0%
same,Fibrin % cell toxicity,primary rat microglia [5]; [14],1%
COC(=O)N/N=C/c1c[n+]([O-])c2ccccc2[n+]1[O-] [Carbadox],inhibition at 10 µM,[1]; [11],-2%
same,inhibition at 10 µM,[2]; [12],11%
same,Quadrant (FIG. 5b),"[3]; primary HTS, 10 μM",Q4
same,LPS % cell toxicity,primary rat microglia [4]; [13],1%
same,Fibrin % cell toxicity,primary rat microglia [5]; [14],1%
CSc1ccc2c(c1)C(N1CCN(C)CC1)Cc1ccccc1S2 (centres unmarked),Fibrin % inhibition,[1]; [6],11%
same,LPS % inhibition,[2]; [7],−5%
same,Quadrant (FIG. 5b),[3]; [8],Q4
same,LPS % cell toxicity,primary rat microglia [4]; [9],0%
same,Fibrin % cell toxicity,primary rat microglia [5]; [10],1%
CC(C)(Oc1ccc(C(=O)c2ccc(Cl)cc2)cc1)C(=O)O [Fenofibric Acid],inhibition at 10 µM,[1]; [24],6%
same,inhibition at 10 µM,[2]; [25],9%
same,Quadrant (FIG. 5b),[3]; [8],Q4
same,LPS % cell toxicity,primary rat microglia [4]; [22],0%
same,Fibrin % cell toxicity,primary rat microglia [5]; [23],1%
Cc1cccc(C)c1NC(=O)C1CCCCN1C (centres unmarked) [Mepivacaine],inhibition at 10 µM,[1]; [15],7%
same,inhibition at 10 µM,[2]; [16],10%
same,Quadrant (FIG. 5b),[3]; [8],Q4
same,LPS % cell toxicity,primary rat microglia [4]; [9],0%
same,Fibrin % cell toxicity,primary rat microglia [5]; [10],0%
"NC(=O)N1c2ccccc2CC(=O)c2ccccc21 [Oxcarbazepine, Trileptal]",Fibrin % inhibition,[1]; [6],3%
same,LPS % inhibition,[2]; [7],35%
same,Quadrant (FIG. 5b),[3]; [8],Q4
same,LPS % cell toxicity,primary rat microglia [4]; [9],0%
same,Fibrin % cell toxicity,primary rat microglia [5]; [10],1%
Cc1nc2ccccc2n1Cc1ccc(Cl)cc1 [Chlormidazole],inhibition at 10 µM,[1]; [15],38%
same,inhibition at 10 µM,[2]; [16],70%
same,Quadrant (FIG. 5b),[3]; [8],Q1
same,LPS % cell toxicity,primary rat microglia [4]; [9],2%
same,Fibrin % cell toxicity,primary rat microglia [5]; [10],1%
Clc1ccc(CCC(Cn2ccnc2)Sc2c(Cl)cccc2Cl)cc1 (centres unmarked) [Butoconazole],inhibition at 10 µM,[1]; [11],-51%
same,inhibition at 10 µM,[2]; [12],10%
same,Quadrant (FIG. 5b),"[3]; primary HTS, 10 μM",Q4
same,LPS % cell toxicity,primary rat microglia [4]; [13],0%
same,Fibrin % cell toxicity,primary rat microglia [5]; [14],0%
"CC(=O)OCC(=O)[C@@]1(O)CC[C@H]2[C@@H]3CCC4=CC(=O)C=C[C@]4(C)[C@H]3[C@@H](O)C[C@@]21C [Prednisolone acetate, reference compound]",IC50,"[1]; Rattus norvegicus, Microglia, Table 7, read-out: fib_IC50",3 nM
same,inhibition at 10 µM,[1]; [15],109%
same,inhibition at 10 µM,[2]; [16],111%
same,IC50,"[2]; Rattus norvegicus, Microglia, Table 7, read-out: LPS_IC50",3 nM
same,Quadrant (FIG. 5b),"[3]; Table 2, screen at 10 μM",Q2
same,Activity,"[3]; Table 7, fib = fibrin, LPS, tox = toxicity",fib/LPS
same,Quadrant (FIG. 5b),[3]; [8],Q2
same,LPS % cell toxicity,primary rat microglia [4]; [9],6%
same,Fibrin % cell toxicity,primary rat microglia [5]; [10],4%
C=C[C@H]1CN2CC[C@H]1C[C@H]2[C@H](O)c1ccnc2ccccc12 [Cinchonidine],inhibition at 10 µM,[1]; [11],13%
same,inhibition at 10 µM,[2]; [12],4%
same,Quadrant (FIG. 5b),"[3]; primary HTS, 10 μM",Q4
same,LPS % cell toxicity,primary rat microglia [4]; [13],0%
same,Fibrin % cell toxicity,primary rat microglia [5]; [14],1%
N#Cc1nn(-c2c(Cl)cc(C(F)(F)F)cc2Cl)c(N)c1[S+]([O-])C(F)(F)F (centres unmarked) [Fipronil],inhibition at 10 µM,[1]; [24],-5%
same,inhibition at 10 µM,[2]; [25],12%
same,Quadrant (FIG. 5b),[3]; [8],Q4
same,LPS % cell toxicity,primary rat microglia [4]; [22],0%
same,Fibrin % cell toxicity,primary rat microglia [5]; [23],1%
CS(=O)(=O)c1ccc([C@@H](O)[C@@H](CO)NC(=O)C(Cl)Cl)cc1 [Thiamphenicol],inhibition at 10 µM,[1]; [17],-19%
same,inhibition at 10 µM,[2]; [18],12%
same,Quadrant (FIG. 5b),[3]; [19],Q4
same,LPS % cell toxicity,primary rat microglia [4]; [20],0%
same,Fibrin % cell toxicity,primary rat microglia [5]; [21],0%
Cc1cc2c(cc1S(N)(=O)=O)S(=O)(=O)CCC2 [Meticrane],inhibition at 10 µM,[1]; [15],-33%
same,inhibition at 10 µM,[2]; [16],9%
same,Quadrant (FIG. 5b),[3]; [8],Q4
same,LPS % cell toxicity,primary rat microglia [4]; [9],0%
same,Fibrin % cell toxicity,primary rat microglia [5]; [10],0%
COc1ccc2cc([C@H](C)CO)ccc2c1 [Naproxol],inhibition at 10 µM,[1]; [15],-10%
same,inhibition at 10 µM,[2]; [16],16%
same,Quadrant (FIG. 5b),[3]; [8],Q4
same,LPS % cell toxicity,primary rat microglia [4]; [9],0%
same,Fibrin % cell toxicity,primary rat microglia [5]; [10],0%
CC1(C)S[C@@H]2[C@H](N3C(=O)[C@@H](c4ccccc4)NC3(C)C)C(=O)N2[C@H]1C(=O)O [Hetacillin Potassium],inhibition at 10 µM,[1]; [24],-15%
same,inhibition at 10 µM,[2]; [25],15%
same,Quadrant (FIG. 5b),[3]; [8],Q4
same,LPS % cell toxicity,primary rat microglia [4]; [22],1%
same,Fibrin % cell toxicity,primary rat microglia [5]; [23],0%
Oc1ccc(Cl)c2cccnc12 [Cloxyquin],inhibition at 10 µM,[1]; [11],-4%
same,inhibition at 10 µM,[2]; [12],18%
same,Quadrant (FIG. 5b),"[3]; primary HTS, 10 μM",Q4
same,LPS % cell toxicity,primary rat microglia [4]; [13],0%
same,Fibrin % cell toxicity,primary rat microglia [5]; [14],0%
N#Cc1ccc2[nH]cc(CCCCN3CCN(c4ccc5oc(C(N)=O)cc5c4)CC3)c2c1 [Vilazodone],inhibition at 10 µM,[1]; [17],1%
same,inhibition at 10 µM,[2]; [18],27%
same,Quadrant (FIG. 5b),[3]; [19],Q4
same,LPS % cell toxicity,primary rat microglia [4]; [20],1%
same,Fibrin % cell toxicity,primary rat microglia [5]; [21],1%
C[N+]1(C)[C@@H]2C[C@@H](OC(=O)C(O)(c3cccs3)c3cccs3)C[C@H]1[C@@H]1O[C@@H]12 [Tiotropium],inhibition at 10 µM,[1]; [17],-32%
same,inhibition at 10 µM,[2]; [18],-1%
same,Quadrant (FIG. 5b),[3]; [19],Q4
same,LPS % cell toxicity,primary rat microglia [4]; [20],0%
same,Fibrin % cell toxicity,primary rat microglia [5]; [21],0%
